The test system of one test is sodium channels. The test can be described thus: [14C]-labelled guanidine flux through sodium channels. Type of test: biochemical, rat. As to conditions: inhibition of flux of [14C]-labelled guanidine through sodium channels.
Another test relates to optic nerve. The test can be described thus: tissue or blood. Type of test: cell-based. As to conditions: Rattus norvegicus; 30 μM of each drug; OGD 1 h; cGMP accumulation; compared with protection achieved by TTX; read-out: % protection accorded.
The next test has as its system optic nerve axons. The test can be described thus: Optic nerve pathology: axonal damage caused by the NO donor PAPA/NO. Type of test: cell-based, rat. How it is done:
Optic nerves were excised from adult Wistar rats (weighing 240-280 g) after decapitation. They comprised lengths of nerve (each about 9 mm long) running from immediately behind the eyeball to just in front of the optic chiasm. […] The flasks were held in a shaking water bath at 37° C.
After 1-2 h preincubation in aCSF, test nerves received the NO donor, PAPA/NO (1 mM) for 2 h or OGD was imposed by transferring the nerves for 1 h into aCSF lacking glucose and gassed with 5% CO2 in N2. Afterwards, the nerves were allowed a 90 min recovery period in aCSF. Putative protectant drugs were present from 15 min before until 15 min after the NO exposure or OGD.
After dehydration the tissues were embedded in Durcupan resin. Semithin (1 μm) sections were stained with either toluidine blue.
The data are expressed as mean number of axons greater than 2.5 μm in diameter per […] (±S.E.M.) in fields from 5-39 nerves.

These results are taken from patent US7790761B2, “Blockade of voltage dependent sodium channels” (University College London, priority 2000, dated 2010).

Values joined by “and” are separate entries in the source; they are usually repeats but may differ in a detail not shown here. Equal entries are not always repeated. Where two headings read alike, the source gives them in different places. Some results are limits rather than exact numbers.

In general, IC50 refers to the point on the concentration scale where inhibition reaches its midpoint. Lower therefore signals inhibition by little substance.

The molecule `Cc1cccc(NC(=O)c2cc(C)n(Cc3c(Cl)cccc3Cl)n2)c1` [1-(2,6-Dichloro-benzyl)-5-methyl-1H-pyrazole-3-carboxylic acid m-tolylamide] returned an IC50 in the test with sodium channels of 7 µM. Further, in the test with optic nerve, the inhibition at 30 µM stood at 29%. Take `Cc1cc(C(=O)Nc2ccc(C(C)(C)C)cc2)nn1C(C)(C)C` [1-tert-Butyl-5-methyl-1H-pyrazole-3-carboxylic acid (4-tert-butyl-phenyl)-amide]: in the test with sodium channels, the IC50 came to 6 µM. The inhibition at 30 µM in the test on optic nerve amounted to 39%.

`CC(C)(C)c1cc(C(=O)NNC(=O)Nc2cccc(Cl)c2)n(Cc2ccccc2)n1` [2-Benzyl-5-tert-butyl-2H-pyrazole-3-carboxylic acid N′-(3-chlorophenylcarbamoyl) hydrazide] yielded an IC50 in the test with sodium channels of 5.8 µM. In the test with optic nerve, the inhibition at 30 µM was 12%. `Cc1ccc(NC(=O)c2cc(C(C)(C)C)nn2Cc2ccccc2)cc1` [2-Benzyl-5-tert-butyl-2H-pyrazole-3-carboxylic acid p-tolylamide] showed an IC50 in the test on sodium channels of 2 µM. Also, the inhibition at 30 µM in the test on optic nerve is 66%. In turn, `Cn1c(SCC(=O)c2ccc(Cl)cc2)nnc1-c1cc(C(C)(C)C)nn1Cc1ccc(F)cc1` [2-{5-[5-tert-Butyl-2-(4-fluoro-benzyl)-2H-pyrazol-3-yl]-4-methyl-4H-[1,2,4]triazol-3-ylsulfanyl}-1-(4-chloro-phenyl)-ethanone] displayed an IC50 with sodium channels of 4.6 µM. Further, the inhibition at 30 µM in the test with optic nerve is 19%. `Cn1c(SCC(=O)c2ccccc2)nnc1-c1cc(C(C)(C)C)nn1Cc1ccc(F)cc1` [2-{5-[5-tert-Butyl-2-(4-fluoro-benzyl)-2H-pyrazol-3-yl]-4-methyl-4H-[1,2,4]triazol-3-ylsulfanyl}-1-phenyl-ethanone] came in with an IC50 in the test with sodium channels of 19.5 µM. In addition, the inhibition at 30 µM with optic nerve turned out to be 18%.

Regarding `Cn1c(SCc2ccccc2)nnc1-c1cc(C(C)(C)C)nn1Cc1ccc(F)cc1` [3-Benzylsulfanyl-5-[5-tert-butyl-2-(4-fluoro-benzyl)-2H-pyrazol-3-yl]-4-methyl-4H-[1,2,4]triazole], the IC50 in the test with sodium channels was 12 µM and 12.3 µM. The inhibition at 30 µM in the test with optic nerve is 72%. Regarding `Cn1nc(C(C)(C)C)cc1C(=O)Nc1ccc(Cl)cc1` [5-tert-Butyl-2-methyl-2H-pyrazole-3-carboxylic acid (4-chloro-phenyl)-amide], in the test with sodium channels, the IC50 turned out to be 6 µM. In addition, the inhibition at 30 µM with optic nerve was 62%. In the case of `Cn1nc(C(C)(C)C)cc1C(=O)Nc1ccc(C(C)(C)C)cc1` [Example 26, 5-tert-Butyl-2-methyl-2H-pyrazole-3-carboxylic acid (4-tert-butyl-phenyl)-amide], the figures for the IC50 in the test with sodium channels and in the test on sodium channels (listed as 5-tert-Butyl-2-methyl-2H-pyrazole-3-carboxylic acid (4-tert-butyl-phenyl)-amide) were < 9 µM and 2 µM, respectively. For the same molecule, in the test with optic nerve, the inhibition at 30 µM is 18%. `CC(C)(C)c1cc(C(=O)Nc2cccc(-c3cnco3)c2)n(Cc2ccccc2)n1` [Example 28, 2-Benzyl-5-tert-butyl-2H-pyrazole-3-carboxylic acid (3-oxazol-5-yl-phenyl)-amide]: in the test with sodium channels, the IC50 is < 9 µM. Same read-out and setting: to `Cn1nc(C(C)(C)C)cc1C(=O)Nc1cccc(-c2cnco2)c1` [Example 29, 5-tert-Butyl-2-methyl-2H-pyrazole-3-carboxylic acid (3-oxazol-5-yl-phenyl)-amide] belongs 9 µM; to `CC(C)(C)c1cc(NC(=O)c2cc(-c3ccccc3)n(-c3ccc(Cl)cc3)n2)no1` [Example 30, 1-(4-Chloro-phenyl)-5-phenyl-1H-pyrazole-3-carboxylic acid (5-tert-butyl-isoxazol-3-yl)-amide], 15 µM.

In the test with sodium channels, `Cc1cc(C(=O)Nc2ccc(C(=O)Nc3ccccc3)cc2)n(C(C)(C)C)n1` [Example 31, 2-tert-Butyl-5-methyl-2H-pyrazole-3-carboxylic acid (4-phenylcarbamoyl-phenyl)-amide] displayed an IC50 of 22 µM. Still for that read-out and setting: the result for `CC(C)(C)c1cc(C(=O)Nc2cccc(C(=O)Nc3ccccc3)c2)n(Cc2ccccc2)n1` [Example 32, 2-Benzyl-5-tert-butyl-2H-pyrazole-3-carboxylic acid (3-phenylcarbamoyl-phenyl)-amide] reads 22 µM. Still for that read-out and setting: to `Cn1nc(C(C)(C)C)cc1C(=O)Nc1cccc(C(=O)Nc2ccccc2)c1` [Example 33, 5-tert-Butyl-2-methyl-2H-pyrazole-3-carboxylic acid (3-phenylcarbamoyl-phenyl)-amide] belongs 22 µM; to `CC(C)(C)c1cc(C(=O)Nc2ccc(Cl)nc2)n(Cc2ccccc2)n1` [Example 34, 2-Benzyl-5-tert-butyl-2H-pyrazole-3-carboxylic acid (6-chloro-pyridin-3-yl)-amide], < 9 µM; to `Cc1cc(C(=O)Nc2ccc(Cl)nc2)nn1C(C)(C)C` [Example 35, 1-tert-Butyl-5-methyl-1H-pyrazole-3-carboxylic acid (6-chloro-pyridin-3-yl)-amide], 5 µM. In turn, `CC(=O)Nc1ccc(NC(=O)c2cc(C)n(C(C)(C)C)n2)cc1` [Example 36, 1-tert-Butyl-5-methyl-1H-pyrazole-3-carboxylic acid (4-acetylamino-phenyl)-amide] came in with an IC50 with sodium channels of 23 µM. Consider `Cc1cc(C(=O)Nc2ncccc2OCc2ccccc2)nn1C(C)(C)C` [Example 37, 1-tert-Butyl-5-methyl-1H-pyrazole-3-carboxylic acid (3-benzyloxy-pyridin-2-yl)-amide], for which the IC50 in the test on sodium channels is < 9 µM. In turn, `CC(=O)Nc1ccc(NC(=O)c2cc(C)n(Cc3ccc(C)cc3)n2)cc1` [Example 38, 5-Methyl-1-(4-methyl-benzyl)-1H-pyrazole-3-carboxylic acid (4-acetylamino-phenyl)-amide] yielded an IC50 with sodium channels of 14 µM. Same read-out and setting: to `CC(=O)Nc1ccc(NC(=O)c2cc(C(C)(C)C)nn2Cc2ccc(Cl)cc2Cl)cc1` [Example 39, 5-tert-Butyl-2-(2,4-dichloro-benzyl)-2H-pyrazole-3-carboxylic acid (4-acetylamino-phenyl)-amide] belongs 24 µM; to `CCn1nc(-c2cccs2)cc1C(=O)Nc1ccc(NC(C)=O)cc1` [Example 40, 2-Ethyl-5-thiophen-2-yl-2H-pyrazole-3-carboxylic acid (4-acetylamino-phenyl)-amide], < 9 µM; to `CC(C)(C)c1cc(C(=O)Nc2nc(-c3cccnc3)cs2)n(Cc2ccc(Cl)cc2Cl)n1` [Example 41, 5-tert-Butyl-2-(2,4-dichloro-benzyl)-2H-pyrazole-3-carboxylic acid (4-(pyridin-3-yl)thiazol-2-yl)-amide], 14 µM. On the same count and under the same terms, the result for `CCn1nc(-c2cccs2)cc1C(=O)Nc1nc(-c2cccnc2)cs1` [Example 42, 2-Ethyl-5-thiophen-2-yl-2H-pyrazole-3-carboxylic acid (4-(pyridin-3-yl)thiazol-2-yl)-amide] reads < 9 µM. `CC(=O)Nc1ccc(NC(=O)c2cc(C(C)(C)C)nn2Cc2ccccc2)cc1` [Example 43, 2-Benzyl-5-tert-butyl-2H-pyrazole-3-carboxylic acid (4-acetylamino-phenyl)-amide]: the midpoint of inhibition with sodium channels, the IC50, lay at 16 µM. For the molecule `Cn1nc(C(C)(C)C)cc1C(=O)Nc1nc(-c2cccnc2)cs1` [Example 44, 5-tert-Butyl-2-methyl-2H-pyrazole-3-carboxylic acid (4-(pyridin-3-yl)thiazol-2-yl)-amide], the IC50 in the test on sodium channels was < 9 µM. Still for that read-out and setting: the result for `COc1ccc(Cc2noc(NC(=O)c3cc(C(C)(C)C)nn3C)n2)cc1` [Example 45, 5-tert-Butyl-2-methyl-2H-pyrazole-3-carboxylic acid [3-(4-methoxy-benzyl)-[1,2,4]oxadiazol-5-yl]-amide] reads 19 µM. Same read-out and setting: the result for `CCNCCCCc1nn(Cc2ccccc2)c2ccccc12` [Example 46, [N-Ethyl-(4-Aminobutyl)]-1-benzylindazole] reads 15.5 µM. Same read-out and setting: to `CN(C)CCNC(=O)c1nn(Cc2ccccc2)c2ccccc12` [Example 47, 1-Benzyl-3-[N-(2-N,N-dimethylaminoethyl)carboxamido]indazole] belongs 63 µM; to `NCc1noc(-c2nn(Cc3ccccc3)c3ccccc23)n1` [Example 51, 1-Benzyl-3-[3-aminomethyl-1,2,4-oxadiazol-yl]indazole], 22.4 µM. On to `CCCN(CCCN)/[N+]([O-])=N/O` [PAPA/NO], for which the “Index of Axonopathy” value in the test on optic nerve axons (PAPA/NO (1 mM) for 2 h alone, no protectant, mean ± S.E.M.) was 226 ± 22 axons greater than 2.5 μm in diameter per 10^4 m^2. Take `NC1=N[C@H](O)[C@H]2[C@H]3O[C@]4(O)O[C@@H]([C@@H](O)[C@@]2(N1)[C@@H]4O)[C@]3(O)CO` [Tetrodotoxin]: in the test with optic nerve axons, the “Effect on axonal pathology caused by NO (in words)” value is “eliminated” and the “Index of Axonopathy” value is 17 ± 4 axons greater than 2.5 μm in diameter per 10^4 m^2.
